Results: patent publication US3936439A, “2,6-Diaminonebularine derivatives” (Takeda Chemical Industries, Ltd., priority 1972, dated 1976)
Like-named read-outs stand apart in the source and are kept apart here.

Assays:
coronary artery = assay: Test for coronary dilating action (intracoronary administration, coronary blood flow in anaesthetized dogs); format: in vivo; settings: 10 μg./dog directly into the coronary artery, potency of adenosine taken as unity
Method: Each of dogs weighing 7 to 17 kilograms was anaesthetized with pentobarbital sodium salt (30 mg./kg., intravenously) and under supportive respiration, a left thoractomy was performed at the fifth interspace.
The heart of each animal was exposed and perfused with the blood guided from the animal's own left carotid artery to the left coronary artery circumflex through a polyethylene catheter. The coronary blood flow was measured with an electromagnetic flowmeter interposed in the external phase of the circuitry.
Each of the test compounds was administered directly into the coronary artery through the polyethylene catheter at a dose of 10 μg./dog. The potency of each compound was expressed with the potency of adenosine being taken as unity.

rat platelets = assay: Test for the action to inhibit the aggregation of rat platelets caused by adenosine-5'-diphosphate (method of Born and Cross); format: cell-based; settings: read-out: Inhibitory action (%)
Text: Test for the action to inhibit the aggregation of rat platelets caused by adenosine-5'-diphosphate

[1] = rat platelet-rich plasma, ADP-induced aggregation, concentration 15 μg/ml
[2] = rat platelet-rich plasma, ADP-induced aggregation, concentration 74 μg/ml
[3] = rat platelet-rich plasma, ADP-induced aggregation, concentration 370 μg/ml

Compound	Maximum coronary flow (coronary artery)	inhibition at 15 µg/mL (rat platelets; Rattus norvegicus, Platelet)	inhibition at 74 µg/mL (rat platelets; Rattus norvegicus, Platelet)	inhibition at 370 µg/mL (rat platelets; Rattus norvegicus, Platelet)	inhibition at 15 µg/mL (rat platelets; [1])	inhibition at 74 µg/mL (rat platelets; [2])	inhibition at 370 µg/mL (rat platelets; [3])
Nc1ncnc2c1ncn2[C@@H]1O[C@H](CO)[C@@H](O)[C@H]1O [Adenosine]	1.00	0%	0%	0%			
Nc1nc(N)c2ncn([C@@H]3O[C@H](CO)[C@@H](O)[C@H]3O)c2n1 [2,6-Diaminonebularine, 2,6-diaminonebularine]	0.50				0%	0%	0%
CCNc1nc(N)c2ncn([C@@H]3O[C@H](CO)[C@@H](O)[C@H]3O)c2n1 [N^2 -Ethyl-2,6-diaminonebularine, N^2-ethyl-2,6-diaminonebularine]	0.91				-11%	-21%	-40%
Nc1nc(NC2CCCCC2)nc2c1ncn2[C@@H]1O[C@H](CO)[C@@H](O)[C@H]1O [N^2 -Cyclohexyl-2,6-diaminonebularine, N^2-cyclohexyl-2,6-diaminonebularine]	2.20				-32%	-60%	-95%
COc1ccc(Nc2nc(N)c3ncn([C@@H]4O[C@H](CO)[C@@H](O)[C@H]4O)c3n2)cc1 [N^2-(p-methoxyphenyl)-2,6-diaminonebularine]	2.37						
Nc1nc(Nc2ccccc2)nc2c1ncn2[C@@H]1O[C@H](CO)[C@@H](O)[C@H]1O [N^2 -Phenyl-2,6-diaminonebularine, N^2-phenyl-2,6-diaminonebularine]	6.75				-38%	-52%	-85%
